The source of these data is US20060030585A1, “Tricyclic delta-opioid modulators” (priority 2004, published 2006).

For one assay, the target named is delta opioid receptor (Rattus norvegicus, UniProt P33533). The assay can be described thus: Rat brain delta opioid receptor binding assay ([3H]DPDPE). The following applies: Rat delta opioid receptor binding constant, rat forebrain membranes, ~4 nM [3H]DPDPE. Put shortly:
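Forebrain membranes from male Sprague Dawley rats in 50 mM Tris HCl pH 7.4 with 5 mM MgCl2, incubated with ~4 nM [3H]DPDPE for 2.5 h at 25° C., then filtered and counted. Single concentrations give % inhibition of specific binding; concentration ranges give Ki.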

The target in assay [1] is T1, delta opioid receptor (NG108-15 cell membranes) (Mus musculus, UniProt P32300).
T1 construct: NG108-15 cell membranes were purchased from Applied Cell Sciences (Rockville, Md.); host or cells: NG108-15 cell membranes (purchased)
Briefly: [35S]GTPγS binding assay in NG108-15 cell membranes (delta opioid). Type of assay: biochemical. The following applies: agonist-stimulated [35S]GTPγS binding. Here is the method: [^35S]GTPγS Binding Assay in NG108-15 Cell Membranes (delta opioid)
Methods: NG108-15 cell membranes were purchased from Applied Cell Sciences (Rockville, Md.). 8 mg/mL of membrane protein suspended in 10 mM TRIS-HCl pH 7.2, 2 mM EDTA, 10% sucrose. Membranes were maintained at 4-8° C. A 1 mL volume of membranes was added into 10 mL cold binding assay buffer. The assay buffer contained 50 mM Tris, pH 7.6, 5 mM MgCl2, 100 mM NaCl, 1 mM DTT and 1 mM EGTA. The membrane suspension was homogenized twice with a Polytron, and centrifuged at 3000 rpm for 10 min. The supernatant was then centrifuged at 18,000 rpm for 20 min. Ten mL assay buffer was added into the pellet containing tube. The pellet and buffer were mixed with a Polytron.
Incubation procedure: The pellet membranes (75 μg/mL) were preincubated with SPA (10 mg/mL) at 25° C. for 45 min in the assay buffer. […] GTPγS in the same Tris buffer containing 100 μM GDP in total volume of 200 μL. Increasing concentrations of receptor agonists were used to stimulate [35S]-GTPγS binding. The basal binding was tested in the absence of agonists and non-specific binding was tested in the presence of 10 μM unlabeled GTPγS. The data were analyzed on a Packard Top Count.
% of Basal=(stimulated−non specific)*100/(basal−non specific). EC50 value values were calculated using GraphPad Prism.

The next assay concerns the target mu opioid receptor (Rattus norvegicus, UniProt P33535). Briefly: Rat brain mu opioid receptor binding assay ([3H]DAMGO). To be noted: Rat mu opioid receptor binding constant, rat forebrain membranes, ~0.8 nM [3H]DAMGO.
For assay [2], the target named is T2, hMOR (CHO-hMOR cell membranes) (Homo sapiens, UniProt P35372).
T2 construct: host or cells: CHO cells expressing hMOR (purchased membranes)
The assay can be described thus: [35S]GTPγS binding assay in CHO-hMOR cell membranes. Format: biochemical. Here is the method: [^35]GTPγS Binding Assays in CHO-hMOR Cell Membranes
Methods: CHO-hMOR cell membranes were purchased from Receptor Biology, Inc. (Baltimore, Md.). About 10 mg/mL of membrane protein was suspended in 10 mM TRIS-HCl pH 7.2, 2 mM EDTA, 10% sucrose, and the suspension kept on ice. A 1 mL volume of membranes was added to 15 mL cold binding assay buffer containing 50 mM HEPES, pH 7.6, 5 mM MgCl2, 100 mM NaCl, 1 mM DTT and 1 mM EDTA. The membrane suspension was homogenized with a Polytron and centrifuged at 3,000 rpm for 10 min. The supernatant was then centrifuged at 18,000 rpm for 20 min. The pellet was resuspended in 10 mL assay buffer with a Polytron. The membranes were preincubated with wheat germ agglutinin coated SPA beads (Amersham) at 25° C. for 45 min in the assay buffer. The SPA bead (5 mg/mL) coupled membranes (10 μg/mL) were then incubated with 0.5 nM [^35S]GTPγS in the assay buffer. […] A range of concentrations of receptor agonist was used to stimulate [35S]GTPγS binding. Both basal and non-specific binding was tested in the absence of agonist; non-specific binding determination included 10 μM unlabeled GTPγS.
Compounds were tested for function as antagonists by evaluating their potential to inhibit agonist-stimulated GTPγS binding. Radioactivity was quantified on a Packard TopCount. The following parameters were calculated: [formula] [formula]
EC50 values were calculated using GraphPad Prism.
(GTPγS resists hydrolysis and so accumulates on activated G proteins.)

Where [3] appears, read: DOR GTPγS EC50, NG108-15 cell membranes.
Where [4] appears, read: NG108-15 cell membranes, read-out: DOR GTPγS EC50.
Setting [5] is: CHO-hMOR cell membranes, [35S]GTPγS binding, read-out: hMOR GTPγS EC50.

Values joined by “and” are separate entries in the source; they are usually repeats but may differ in a detail not shown here. Equal entries are not always repeated. Where two headings read alike, the source gives them in different places.

For orientation: Ki means the equilibrium dissociation constant of an inhibitor or competing ligand from its target. In general, EC50 refers to the concentration that produces a half-maximal response.

Sequence of mu opioid receptor (P33535 whole entry): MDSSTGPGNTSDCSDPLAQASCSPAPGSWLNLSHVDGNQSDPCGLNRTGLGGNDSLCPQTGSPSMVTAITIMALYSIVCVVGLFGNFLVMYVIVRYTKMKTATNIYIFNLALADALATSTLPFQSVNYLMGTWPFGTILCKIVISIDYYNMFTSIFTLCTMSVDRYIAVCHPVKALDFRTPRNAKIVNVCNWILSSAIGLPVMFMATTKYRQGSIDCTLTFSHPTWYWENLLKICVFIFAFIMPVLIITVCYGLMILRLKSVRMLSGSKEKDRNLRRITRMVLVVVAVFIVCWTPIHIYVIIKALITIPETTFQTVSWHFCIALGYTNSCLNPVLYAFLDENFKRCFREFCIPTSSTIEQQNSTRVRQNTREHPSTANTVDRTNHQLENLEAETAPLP
T2 sequence (P35372 whole entry): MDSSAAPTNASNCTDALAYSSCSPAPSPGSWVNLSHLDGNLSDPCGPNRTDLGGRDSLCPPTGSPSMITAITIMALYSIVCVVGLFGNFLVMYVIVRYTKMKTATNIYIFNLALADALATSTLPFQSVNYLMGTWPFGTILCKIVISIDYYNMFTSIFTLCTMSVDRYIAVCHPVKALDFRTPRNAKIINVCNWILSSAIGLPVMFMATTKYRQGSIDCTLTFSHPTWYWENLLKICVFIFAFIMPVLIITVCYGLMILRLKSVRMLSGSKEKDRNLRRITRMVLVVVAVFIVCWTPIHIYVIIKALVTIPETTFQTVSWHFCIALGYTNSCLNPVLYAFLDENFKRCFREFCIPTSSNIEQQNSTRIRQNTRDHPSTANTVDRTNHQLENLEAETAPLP
T1 sequence (P32300 whole entry): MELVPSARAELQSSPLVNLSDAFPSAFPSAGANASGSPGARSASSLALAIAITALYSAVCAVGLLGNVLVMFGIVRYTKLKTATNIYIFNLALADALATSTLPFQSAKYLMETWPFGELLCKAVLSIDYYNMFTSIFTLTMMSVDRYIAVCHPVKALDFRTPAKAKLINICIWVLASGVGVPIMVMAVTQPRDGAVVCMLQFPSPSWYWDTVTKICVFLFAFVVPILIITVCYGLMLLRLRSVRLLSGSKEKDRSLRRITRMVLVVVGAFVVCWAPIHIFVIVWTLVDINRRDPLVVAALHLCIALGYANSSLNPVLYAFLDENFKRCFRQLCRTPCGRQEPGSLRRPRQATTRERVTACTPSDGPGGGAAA
Sequence of delta opioid receptor (P33533 whole entry): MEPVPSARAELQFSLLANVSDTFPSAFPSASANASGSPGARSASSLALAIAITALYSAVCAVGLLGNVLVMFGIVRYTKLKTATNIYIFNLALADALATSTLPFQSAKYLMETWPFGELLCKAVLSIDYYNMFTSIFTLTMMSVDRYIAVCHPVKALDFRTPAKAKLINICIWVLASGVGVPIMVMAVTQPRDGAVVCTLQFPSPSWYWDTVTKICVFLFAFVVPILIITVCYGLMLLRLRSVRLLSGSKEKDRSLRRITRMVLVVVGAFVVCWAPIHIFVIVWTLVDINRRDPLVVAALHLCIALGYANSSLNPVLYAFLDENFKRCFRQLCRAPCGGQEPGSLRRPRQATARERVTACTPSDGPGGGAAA

In the case of `c1ccc2c(c1)Sc1cc(-c3nnn[nH]3)ccc1C2=C1C[C@H]2CC[C@@H](C1)N2` (single isomer, unassigned) [Cpd 103, (1SR,5RS)-3-[3-(1H-tetrazol-5-yl)-thioxanthen-9-ylidene]-8-aza-bicyclo[3.2.1]octane], the values for the Ki on delta opioid receptor (DOR Ki) and at mu opioid receptor (MOR Ki) were 10.1 nM and 329 nM, respectively. For the same molecule, in assay [1] (setting [3]), the EC50 is 49.6 nM.

On to `c1ccc2c(c1)Oc1cc(-c3nnn[nH]3)ccc1C2=C1CC2CCC(C1)N2` [Cpd 1, 3-[3-(1H-Tetrazol-5-ly)-xanthen-9-ylidene]-8-aza-bicyclo[3.2.1]octane], for which the Ki on delta opioid receptor (DOR Ki) turned out to be 1.99 nM; on mu opioid receptor (MOR Ki), 637 nM. Further, the EC50 in assay [1] (setting [3]) was 189 nM and 70.3 nM.

Take `CC(=O)Nc1ccccc1-c1ccc2c(c1)Oc1ccccc1C2=C1CC2CCC(C1)N2` [Cpd 2, N-{2-[9-(8-Aza-bicyclo[3.2.1]oct-3-ylidene)-9H-xanthen-3-yl]-phenyl}-aceta-mide]: the results for the Ki at delta opioid receptor (DOR Ki) and at mu opioid receptor (MOR Ki) were 4.36 nM and 1140 nM, respectively. Moreover, in assay [1] (setting [3]), the EC50 worked out at 394 nM.

Regarding `O=c1[nH]c(-c2ccc3c(c2)Oc2ccccc2C3=C2CC3CCC(C2)N3)no1` [Cpd 4, 3-[9-(8-Aza-bicyclo[3.2.1]oct-3-ylidene)-9H-xanthen-3-yl]-4H-[1,2,4]oxadiazol-5-one], the Ki on delta opioid receptor (DOR Ki) came out at 6.78 nM; on mu opioid receptor (MOR Ki), 768 nM. This molecule came in with an EC50 in assay [1] (setting [3]) of 128 nM.

In the case of `S=c1[nH]c(-c2ccc3c(c2)Oc2ccccc2C3=C2CC3CCC(C2)N3)no1` [Cpd 5, 3-[9-(8-Aza-bicyclo[3.2.1]oct-3-ylidene)-9H-xanthen-3-yl]-4H-[1,2,4]oxadiazole-5-thione], the Ki on delta opioid receptor (DOR Ki) is 6.89 nM; at mu opioid receptor (MOR Ki) it was 1020 nM. This molecule also returned an EC50 in assay [1] (setting [3]) of 104 nM.

Regarding `O=C(c1ccc2c(c1)Oc1ccccc1C2=C1CC2CCC(C1)N2)N1CCCC1` [Cpd 6, [9-(8-Aza-bicyclo[3.2.1]oct-3-ylidene)-9H-xanthen-3-yl]-pyrrolidin-1-yl-methanone], the figures for the Ki on delta opioid receptor (DOR Ki) and on mu opioid receptor (MOR Ki) were 7.4 nM and 1400 nM, respectively. In assay [1] (setting [3]), this molecule yielded an EC50 of 59 nM.

As to `COCCN(C)C(=O)c1ccc2c(c1)Oc1ccccc1C2=C1CC2CCC(C1)N2` [Cpd 7], the Ki on delta opioid receptor (DOR Ki) was found to be 7.63 nM; at mu opioid receptor (MOR Ki), 1810 nM. For the same molecule, the midpoint of the response in assay [1] (setting [3]), the EC50, lay at 173 nM.

With `O=c1[nH]c(-c2ccc3c(c2)Oc2ccccc2C3=C2CC3CCC(C2)N3)ns1` [Cpd 8, 3-[9-(8-Aza-bicyclo[3.2.1]oct-3-ylidene)-9H-xanthen-3-yl]-4H-[1,2,4]thiadiazol-5-one], the Ki is 10.8 nM on delta opioid receptor (DOR Ki) and 1080 nM on mu opioid receptor (MOR Ki). This molecule also yielded an EC50 in assay [1] (setting [3]) of 359 nM.

For `O=C(NCc1cccc(F)c1)c1ccc2c(c1)Oc1ccccc1C2=C1CC2CCC(C1)N2` [Cpd 11], the Ki on delta opioid receptor (read-out: DOR Ki) turned out to be 18.5 nM; at mu opioid receptor (read-out: MOR Ki) it was 739 nM. Moreover, in assay [1] (setting [4]), the EC50 was 209 nM.

Take `c1cncc(-c2ccc3c(c2)Oc2ccccc2C3=C2CC3CCC(C2)N3)c1` [Cpd 12, 3-(3-Pyridin-3-yl-xanthen-9-ylidene)-8-aza-bicyclo[3.2.1]octane]: the values for the Ki at delta opioid receptor (DOR Ki) and on mu opioid receptor (MOR Ki) were 24 nM and 2130 nM, respectively. Further, the EC50 was 587 nM in assay [1] (setting [3]) and 0.47 nM in assay [2].

In the case of `Cc1cccc(C)c1OCC(C)NC(=O)c1ccc2c(c1)Oc1ccccc1C2=C1CC2CCC(C1)N2` (stereo not shown) [Cpd 13], the Ki at delta opioid receptor (DOR Ki) is 23.6 nM; on mu opioid receptor (read-out: MOR Ki), 2920 nM. Besides, the EC50 in assay [1] (setting [4]) was 641 nM.

In the case of `Cn1nnc(-c2ccc3c(c2)Oc2ccccc2C3=C2CC3CCC(C2)N3)n1` [Cpd 16, 3-[3-(2-Methyl-2H-tetrazol-5-yl)-xanthen-9-ylidene]-8-aza-bicyclo[3.2.1]octane], the Ki on delta opioid receptor (DOR Ki) is 30 nM; at mu opioid receptor (MOR Ki), 1460 nM. Further, the EC50 in assay [1] (setting [3]) turned out to be 573 nM; in assay [2], 0.48 nM.

In the case of `COc1cccc2c1Oc1cc(-c3cccnc3)ccc1C2=C1CC2CCC(C1)N2` [Cpd 71], the results for the Ki at delta opioid receptor (read-out: DOR Ki) and at mu opioid receptor (read-out: MOR Ki) were 5.7 nM and 1140 nM, respectively. The EC50 in assay [1] (setting [4]) worked out at 1940 nM.

`COc1cccc2c1Oc1cc(-c3nnn[nH]3)ccc1C2=C1CC2CCC(C1)N2` [Cpd 82]: the Ki at delta opioid receptor (read-out: DOR Ki) came out at 5.6 nM; on mu opioid receptor (read-out: MOR Ki), 307 nM. Besides, the EC50 in assay [1] (setting [4]) worked out at 88.4 nM.

With `Oc1cccc2c1Oc1cc(-c3nnn[nH]3)ccc1C2=C1CC2CCC(C1)N2` [Cpd 90], the EC50 stood at 0.7 nM in assay [1] (setting [4]) and 90 nM in assay [2] (setting [5]).

For `O=c1[nH]c(-c2ccc3c(c2)Oc2ccccc2C3=C2CC3CCC(C2)N3)no1` [Cpd 91], the Ki at delta opioid receptor (read-out: DOR Ki) was 0.76 nM; on mu opioid receptor (read-out: MOR Ki) it was over 10000 nM. For the same molecule, the EC50 in assay [1] (setting [4]) was determined as 72.2 nM.

In the case of `O=c1[nH]c(-c2ccc3c(c2)Oc2ccccc2C3=C2CC3CCC(C2)N3)no1` [Cpd 92], the Ki was determined as 0.07 nM at delta opioid receptor (read-out: DOR Ki) and 502 nM at mu opioid receptor (read-out: MOR Ki). Further, in assay [1] (setting [4]), the 50% effective concentration (EC50) worked out at 102 nM.

As to `S=c1[nH]c(-c2ccc3c(c2)Oc2ccccc2C3=C2CC3CCC(C2)N3)no1` [Cpd 93], the results for the inhibition constant Ki on delta opioid receptor (read-out: DOR Ki) and at mu opioid receptor (read-out: MOR Ki) were 0.37 nM and 3740 nM, respectively. In assay [1] (setting [4]), the EC50 came to 631 nM.

Take `S=c1[nH]c(-c2ccc3c(c2)Oc2ccccc2C3=C2CC3CCC(C2)N3)no1` [Cpd 94]: the Ki was found to be 0.04 nM at delta opioid receptor (read-out: DOR Ki) and 219 nM on mu opioid receptor (read-out: MOR Ki). Also, the EC50 in assay [1] (setting [4]) was 126 nM.

`O=c1[nH]c(-c2ccc3c(c2)Oc2ccccc2C3=C2CC3CCC(C2)N3)ns1` [Cpd 101]: the Ki at delta opioid receptor (read-out: DOR Ki) worked out at 7 nM; on mu opioid receptor (read-out: MOR Ki), 465 nM. Besides, in assay [1] (setting [4]), the EC50 worked out at 281 nM.

Consider `COc1cccc2c1Oc1cc(-c3ccccc3NC(C)=O)ccc1C2=C1CC2CCC(C1)N2` [Cpd 108], for which the values for the Ki at delta opioid receptor (read-out: DOR Ki) and on mu opioid receptor (read-out: MOR Ki) were 33.9 nM and 426 nM, respectively. Besides, the EC50 in assay [1] (setting [4]) amounted to 117 nM.

Regarding `Oc1cccc2c1Oc1cc(-c3cnc4ccccc4c3)ccc1C2=C1CC2CCC(C1)N2` [Cpd 109], the figures for the inhibition constant Ki at delta opioid receptor (read-out: DOR Ki) and at mu opioid receptor (read-out: MOR Ki) were 2.22 nM and 31 nM, respectively. In addition, the EC50 in assay [1] (setting [4]) stood at 94.2 nM; in assay [2] (setting [5]), 1230 nM.

As for `CCN(CC)C(=N)c1ccc2c(c1)Oc1ccccc1C2=C1CC2CCC(C1)N2` [Cpd 125], the figures for the Ki on delta opioid receptor (DOR Ki) and at mu opioid receptor (MOR Ki) were 6.3 nM and 2050 nM, respectively. In addition, the EC50 in assay [1] (setting [3]) was 78.3 nM; in assay [2] it was over 10000 nM.

Take `CCN(CC)C(=N)c1ccc2c(c1)Oc1ccccc1C2=C1CC2CCC(C1)N2` [Cpd 126]: the Ki on delta opioid receptor (read-out: DOR Ki) is 1410 nM; on mu opioid receptor (read-out: MOR Ki), over 10000 nM. Further, the EC50 in assay [1] (setting [4]) and in assay [2] (setting [5]) was over 10000 nM in each case.
